Source: ChEMBL document CHEMBL3885881, “DrugMatrix”

Species on record: Rattus norvegicus
Assay: DrugMatrix - Regimen: Daily Repeat
Type: toxicity, organism-based, Sprague-Dawley
Set-up: regimen Daily Repeat, gender Male, age 6-8 weeks
Settings: in vivo, po, route oral GAVAGE, vehicle .5 % CMC; for BASOPHIL / EOSINOPHIL / ERYTHROCYTE COUNT / HEMATOCRIT / HEMOGLOBIN / LEUKOCYTE COUNT / LYMPHOCYTE / MEAN CORPUSCULAR HEMOGLOBIN / MEAN CORPUSCULAR HEMOGLOBIN CONCENTRATION / MEAN CORPUSCULAR VOLUME / MONOCYTE / NEUTROPHIL / PLATELET COUNT: tissue Blood; for ALANINE AMINOTRANSFERASE / ALBUMIN / ALKALINE PHOSPHATASE / ASPARTATE AMINOTRANSFERASE / BLOOD UREA NITROGEN / CHLORIDE / CHOLESTEROL / CREATINE PHOSPHOKINASE / CREATININE / GLUCOSE / PHOSPHORUS / POTASSIUM / SODIUM / TOTAL BILIRUBIN / TOTAL PROTEIN: tissue Plasma
[1] = 40 mg/kg, 72 h, dose level Low, time 3 day
[2] = 40 mg/kg, 120 h, dose level Low, time 5 day
[3] = 99 mg/kg, 72 h, dose level High, time 3 day
[4] = 99 mg/kg, 120 h, dose level High, time 5 day

With CO[C@H]1/C=C/O[C@@]2(C)Oc3c(C)c(O)c4c(O)c(c(/C=N/N5CCN(C)CC5)c(O)c4c3C2=O)NC(=O)/C(C)=C\C=C\[C@H](C)[C@H](O)[C@@H](C)[C@@H](O)[C@@H](C)[C@H](OC(C)=O)[C@@H]1C [RIFAMPIN] the BASOPHIL [1] was 0%, the EOSINOPHIL [1] was 0% and the “ERYTHROCYTE COUNT” value [1] was 6.01 x10E6/uL. For the same molecule, the HEMATOCRIT [1] was 36.73%, the HEMOGLOBIN [1] was 14.33 G/DL and the “LEUKOCYTE COUNT” value [1] was 9.07 x10E3/uL. For the same molecule, the LYMPHOCYTE [1] was 88%, the “MEAN CORPUSCULAR HEMOGLOBIN” value [1] was 23.83 pg and the “MEAN CORPUSCULAR HEMOGLOBIN CONCENTRATION” value [1] was 39.03 G/DL. The “MEAN CORPUSCULAR VOLUME” value [1] was 61.1 fL, the MONOCYTE [1] was 2.33% and the NEUTROPHIL [1] was 9.67%. For the same molecule, the “PLATELET COUNT” value [1] was 1111.33 x10E3/uL, the “ALANINE AMINOTRANSFERASE” value [1] was 36 u/L and the ALBUMIN [1] was 3.6 G/DL. The “ALKALINE PHOSPHATASE” value [1] was 274 u/L, the “ASPARTATE AMINOTRANSFERASE” value [1] was 60 u/L and the “BLOOD UREA NITROGEN” value [1] was 9 mg/dL. For the same molecule, the CHLORIDE [1] was 108 MEQ/L, the CHOLESTEROL [1] was 63.33 mg/dL and the “CREATINE PHOSPHOKINASE” value [1] was 115.33 u/L. For the same molecule, the CREATININE [1] was 0.43 mg/dL, the GLUCOSE [1] was 170.33 mg/dL and the PHOSPHORUS [1] was 11.3 mg/dL. For the same molecule, the POTASSIUM [1] was 6.6 MEQ/L, the SODIUM [1] was 152.67 MEQ/L and the “TOTAL BILIRUBIN” value [1] was 0.33 mg/dL. For the same molecule, the “TOTAL PROTEIN” value [1] was 5.73 G/DL, the BASOPHIL [2] was 0% and the EOSINOPHIL [2] was 0%. The “ERYTHROCYTE COUNT” value [2] was 6.22 x10E6/uL, the HEMATOCRIT [2] was 36.5% and the HEMOGLOBIN [2] was 14.57 G/DL. For the same molecule, the “LEUKOCYTE COUNT” value [2] was 14.23 x10E3/uL, the LYMPHOCYTE [2] was 89.33% and the “MEAN CORPUSCULAR HEMOGLOBIN” value [2] was 23.47 pg. The “MEAN CORPUSCULAR HEMOGLOBIN CONCENTRATION” value [2] was 39.93 G/DL, the “MEAN CORPUSCULAR VOLUME” value [2] was 58.8 fL and the MONOCYTE [2] was 2.67%. The NEUTROPHIL [2] was 8%, the “PLATELET COUNT” value [2] was 1082.67 x10E3/uL and the “ALANINE AMINOTRANSFERASE” value [2] was 42.33 u/L. For the same molecule, the ALBUMIN [2] was 3.7 G/DL, the “ALKALINE PHOSPHATASE” value [2] was 325 u/L and the “ASPARTATE AMINOTRANSFERASE” value [2] was 62.67 u/L. The “BLOOD UREA NITROGEN” value [2] was 13.67 mg/dL, the CHLORIDE [2] was 107.33 MEQ/L and the CHOLESTEROL [2] was 78.33 mg/dL. For the same molecule, the “CREATINE PHOSPHOKINASE” value [2] was 142 u/L, the CREATININE [2] was 0.57 mg/dL and the GLUCOSE [2] was 180.33 mg/dL. It also gave a PHOSPHORUS [2] of 10.97 mg/dL, a POTASSIUM [2] of 6.63 MEQ/L and an SODIUM [2] of 150.33 MEQ/L. The “TOTAL BILIRUBIN” value [2] was 0.3 mg/dL, the “TOTAL PROTEIN” value [2] was 6.03 G/DL and the BASOPHIL [3] was 0%. The EOSINOPHIL [3] was 0.33%, the “ERYTHROCYTE COUNT” value [3] was 5.7 x10E6/uL and the HEMATOCRIT [3] was 35.03%. For the same molecule, the HEMOGLOBIN [3] was 13.93 G/DL, the “LEUKOCYTE COUNT” value [3] was 12.7 x10E3/uL and the LYMPHOCYTE [3] was 89%. For the same molecule, the “MEAN CORPUSCULAR HEMOGLOBIN” value [3] was 24.47 pg, the “MEAN CORPUSCULAR HEMOGLOBIN CONCENTRATION” value [3] was 39.77 G/DL and the “MEAN CORPUSCULAR VOLUME” value [3] was 61.5 fL. For the same molecule, the MONOCYTE [3] was 2%, the NEUTROPHIL [3] was 8.67% and the “PLATELET COUNT” value [3] was 1047.33 x10E3/uL. For the same molecule, the “ALANINE AMINOTRANSFERASE” value [3] was 41 u/L, the ALBUMIN [3] was 3.8 G/DL and the “ALKALINE PHOSPHATASE” value [3] was 360.33 u/L. For the same molecule, the “ASPARTATE AMINOTRANSFERASE” value [3] was 60 u/L, the “BLOOD UREA NITROGEN” value [3] was 10.67 mg/dL and the CHLORIDE [3] was 106.67 MEQ/L. For the same molecule, the CHOLESTEROL [3] was 93.67 mg/dL, the “CREATINE PHOSPHOKINASE” value [3] was 139 u/L and the CREATININE [3] was 0.43 mg/dL. For the same molecule, the GLUCOSE [3] was 166.33 mg/dL, the PHOSPHORUS [3] was 11.6 mg/dL and the POTASSIUM [3] was 6.4 MEQ/L. For the same molecule, the SODIUM [3] was 153 MEQ/L, the “TOTAL BILIRUBIN” value [3] was 0.3 mg/dL and the “TOTAL PROTEIN” value [3] was 6.1 G/DL. The BASOPHIL [4] was 0%, the EOSINOPHIL [4] was 0.33% and the “ERYTHROCYTE COUNT” value [4] was 5.79 x10E6/uL. For the same molecule, the HEMATOCRIT [4] was 34.87%, the HEMOGLOBIN [4] was 13.73 G/DL and the “LEUKOCYTE COUNT” value [4] was 17.13 x10E3/uL. For the same molecule, the LYMPHOCYTE [4] was 85%, the “MEAN CORPUSCULAR HEMOGLOBIN” value [4] was 23.73 pg and the “MEAN CORPUSCULAR HEMOGLOBIN CONCENTRATION” value [4] was 39.4 G/DL. The “MEAN CORPUSCULAR VOLUME” value [4] was 60.23 fL, the MONOCYTE [4] was 2% and the NEUTROPHIL [4] was 12.67%. The “PLATELET COUNT” value [4] was 1010.67 x10E3/uL, the “ALANINE AMINOTRANSFERASE” value [4] was 46 u/L and the ALBUMIN [4] was 3.6 G/DL. The “ALKALINE PHOSPHATASE” value [4] was 384.33 u/L, the “ASPARTATE AMINOTRANSFERASE” value [4] was 64.33 u/L and the “BLOOD UREA NITROGEN” value [4] was 11.33 mg/dL. The CHLORIDE [4] was 108.33 MEQ/L, the CHOLESTEROL [4] was 75 mg/dL and the “CREATINE PHOSPHOKINASE” value [4] was 143 u/L. The CREATININE [4] was 0.5 mg/dL, the GLUCOSE [4] was 177.67 mg/dL and the PHOSPHORUS [4] was 11.1 mg/dL. For the same molecule, the POTASSIUM [4] was 6.3 MEQ/L, the SODIUM [4] was 149.33 MEQ/L and the “TOTAL BILIRUBIN” value [4] was 0.37 mg/dL. The “TOTAL PROTEIN” value [4] was 5.67 G/DL.
